Measurements: patent US9428492B2, “Secondary alcohol substituted triazoles as PDE10 inhibitors” (Merck Sharp & Dohme Corp., priority 2012, dated 2016)

target: human PDE10A2 (Homo sapiens (Human), UniProt Q9Y233); test: PDE10 fluorescence polarization (IMAP FP) inhibition assay; format: biochemical; settings: read-out: PDE10a Ki
Method: The activity of the compounds in accordance with the present invention as PDE10 inhibitors may be readily determined without undue experimentation using a fluorescence polarization (FP) methodology that is well known in the art (Huang, W., et al., J. Biomol Screen, 2002, 7: 215).
In a typical experiment the PDE10 inhibitory activity of the compounds of the present invention was determined in accordance with the following experimental method. PDE10A2 was amplified from human fetal brain cDNA (Clontech, Mountain View, Calif.) using a forward primer corresponding to nucleotides 56-77 of human PDE10A2 (Accession No. AF127480, Genbank Identifier 4894716), containing a Kozak consensus sequence, and a reverse primer corresponding to nucleotides 2406-2413 of human PDE10A2 (Accession No. AF127480, Genbank Identifier 4894716). Amplification with Easy-A polymerase (Stratagene, La Jolla, Calif.) was 95° C. for 2 minutes followed by thirty three cycles of 95° C. for 40 seconds, 55° C. for 30 seconds, and 72° C. for 2 minutes 48 seconds. Final extension was 72° C. for 7 minutes. The PCR product was TA cloned into pcDNA3.2-TOPO (Invitrogen, Carlsbad, Calif.) according to standard protocol. AD293 cells with 70-80% confluency were transiently transfected with human PDE10A2/pcDNA3.2-TOPO using Lipofectamine 2000 according to manufacturer specifications (Invitrogen, Carlsbad, Calif.). Cells were harvested 48 hours post-transfection and lysed by sonication (setting 3, 10×5 sec pulses) in a buffer containing 20 mM HEPES, 1 mM EDTA and protease inhibitor cocktail (Roche). Lysate was collected by centrifugation at 75,000×g for 20 minutes. Supernatant containing the cytoplasmic fraction was used for evaluation of PDE10A2 activity. The fluorescence polarization assay for cyclic nucleotide phosphodiesterases was performed using an IMAP® FP kit supplied by Molecular Devices, Sunnyvale, Calif. (product # R8139). IMAP® technology has been applied previously to phosphodiesterase assays (Huang, W., et al., J. Biomol Screen, 2002, 7: 215). Assays were performed at room temperature in 384-well microtiter plates with an incubation volume of 20.2 μL. Solutions of test compounds were prepared in DMSO and serially diluted with DMSO to yield 8 μL of each of 10 solutions differing by 3-fold in concentration, at 32 serial dilutions per plate. […] 0% of inhibition is determined by using DMSO (1% final concentrations).
A Labcyte Echo 555 (Labcyte, Sunnyvale, Calif.) is used to dispense 200 nL from each well of the titration plate to the 384 well assay plate. A solution of enzyme (1/1600 dilution from aliquots; sufficient to produce 20% substrate conversion) and a separate solution of FAM-labeled cAMP PDE from Molecular Devices (product # R7506), at a final concentration of 50 nM are made in the assay buffer (10 mM Tris HCl, pH 7.2, 10 mM MgCl2, 0.05% NaN3 0.01% Tween-20, and 1 mM DTT). The enzyme and the substrate are then added to the assay plates in two consecutive additions of 10 μL, and then shaken to mix. The reaction is allowed to proceed at room temperature for 30 minutes. […] The enzymatic reaction is stopped by addition of 60 μL of the binding solution to each well of the assay plates and the plates are sealed and shaken for 10 seconds. The plate was incubated at room temperature for at least one hour prior to determining the fluorescence polarization (FP). The parallel and perpendicular fluorescence of each well of the plate was measured using a Perkin Elmer EnVision™ plate reader (Waltham, Mass.).
Fluorescence polarization (mP) was calculated from the parallel (S) and perpendicular (P) fluorescence of each sample well and the analogous values for the median control well, containing only substrate (So and Po), using the following equation: Polarization (mP)=1000*(S/So−P/Po)/(S/So+P/Po).
Dose-inhibition profiles for each compound were characterized by fitting the mP data to a four-parameter equation given below.

human PDE10A2, sequence (Q9Y233 267-1055): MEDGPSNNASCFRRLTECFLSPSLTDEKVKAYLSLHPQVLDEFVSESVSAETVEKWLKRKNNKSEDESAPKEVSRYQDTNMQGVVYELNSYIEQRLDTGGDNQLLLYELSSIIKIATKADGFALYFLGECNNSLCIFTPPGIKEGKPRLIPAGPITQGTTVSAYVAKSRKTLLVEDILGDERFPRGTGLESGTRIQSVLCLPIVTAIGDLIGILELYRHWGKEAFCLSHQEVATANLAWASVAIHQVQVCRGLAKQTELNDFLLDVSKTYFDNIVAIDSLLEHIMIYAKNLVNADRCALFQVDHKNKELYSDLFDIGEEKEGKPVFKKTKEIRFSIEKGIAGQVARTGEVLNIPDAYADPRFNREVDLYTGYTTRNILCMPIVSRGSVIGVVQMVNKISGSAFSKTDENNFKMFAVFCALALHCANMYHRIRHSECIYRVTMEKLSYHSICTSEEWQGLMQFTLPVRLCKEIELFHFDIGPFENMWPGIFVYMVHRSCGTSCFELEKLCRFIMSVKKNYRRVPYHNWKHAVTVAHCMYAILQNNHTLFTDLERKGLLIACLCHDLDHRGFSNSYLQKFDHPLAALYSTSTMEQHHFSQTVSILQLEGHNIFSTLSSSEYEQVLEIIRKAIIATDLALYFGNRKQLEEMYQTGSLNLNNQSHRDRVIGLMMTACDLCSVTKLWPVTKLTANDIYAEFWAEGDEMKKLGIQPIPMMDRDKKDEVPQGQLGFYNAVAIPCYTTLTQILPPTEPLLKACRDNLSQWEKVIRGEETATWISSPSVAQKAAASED

Compound	Ki [nM]
Cc1nc(N2CC(c3nc4ccccc4n3C)C2)cc(-n2nc(C)nc2C(O)C(F)(F)F)n1 (racemic) [Example 3, 2,2,2-trifluoro-1-(3-methyl-1-(2-methyl-6-(3-(1-methyl-1H-benzo[d]imidazol-2-yl)azetidin-1-yl)pyrimidin-4-yl)-1H-1,2,4-triazol-5-yl)ethanol]	0.11
Cc1nc(N2CC(c3nc4ccccc4n3C)C2)cc(-n2nc(C)nc2C(O)C(F)(F)F)n1 (single isomer, unassigned) [Example 3a, 2,2,2-trifluoro-1-(3-methyl-1-(2-methyl-6-(3-(1-methyl-1H-benzo[d]imidazol-2-yl)azetidin-1-yl)pyrimidin-4-yl)-1H-1,2,4-triazol-5-yl)ethanol]	1
CCC(O)c1nc(C)nn1-c1cc(N2CC(c3nc4ccccc4n3C)C2)nc(C)n1 (single isomer, unassigned) [Example 4a, 1-(3-methyl-1-(2-methyl-6-(3-(1-methyl-1H-benzo[d]imidazol-2-yl)azetidin-1-yl)pyrimidin-4-yl)-1H-1,2,4-triazol-5-yl)propan-1-ol]	1.8
CCC(O)c1nc(C)nn1-c1cc(N2CC(c3nc4ccccc4n3C)C2)nc(C)n1 (stereo not shown) [Example 4, 1-(3-methyl-1-(2-methyl-6-(3-(1-methyl-1H-benzo[d]imidazol-2-yl)azetidin-1-yl)pyrimidin-4-yl)-1H-1,2,4-triazol-5-yl)propan-1-ol]	0.51
Cc1nc(N2CC(c3nc4ccccc4n3C)C2)cc(-n2nc(C)nc2C(O)C(C)C)n1 (stereo not shown) [Example 5, 2-methyl-1-(3-methyl-1-(2-methyl-6-(3-(1-methyl-1H-benzo[d]imidazol-2-yl)azetidin-1-yl)pyrimidin-4-yl)-1H-1,2,4-triazol-5-yl)propan-1-ol]	0.41
Cc1nc(N2CC(c3nc4ccccc4n3C)C2)cc(-n2nc(C)nc2C(O)C2CC2)n1 (stereo not shown) [Example 6, cyclopropyl(3-methyl-1-(2-methyl-6-(3-(1-methyl-1H-benzo[d]imidazol-2-yl)azetidin-1-yl)pyrimidin-4-yl)-1H-1,2,4-triazol-5-yl)methanol]	0.36
Cc1nc(N2CC(c3nc4ccccc4n3C)C2)cc(-n2nc(C)nc2C(O)CC(F)(F)F)n1 (stereo not shown) [Example 7, 3,3,3-trifluoro-1-(3-methyl-1-(2-methyl-6-(3-(1-methyl-1H-benzo[d]imidazol-2-yl)azetidin-1-yl)pyrimidin-4-yl)-1H-1,2,4-triazol-5-yl)propan-1-ol]	3.2
Cc1nc(C(C)O)n(-c2cc(N3CC(c4nc5ccccc5n4C)C3)nc(C(F)(F)F)n2)n1 (stereo not shown) [Example 8, 1-(3-methyl-1-(6-(3-(1-methyl-1H-benzo[d]imidazol-2-yl)azetidin-1-yl)-2-(trifluoromethyl)pyrimidin-4-yl)-1H-1,2,4-triazol-5-yl)ethanol]	0.83
COc1nc(N2CC(c3nc4ccccc4n3C)C2)cc(-n2nc(C)nc2C(C)O)n1 (stereo not shown) [Example 9, 1-(1-(2-methoxy-6-(3-(1-methyl-1H-benzo[d]imidazol-2-yl)azetidin-1-yl)pyrimidin-4-yl)-3-methyl-1H-1,2,4-triazol-5-yl)ethanol]	1.2

Further lines, results first:

Ki [nM]	Compound
0.34	Cc1nc(N2CC(c3nc4ccccc4n3C)C2)cc(-n2nc(C)nc2C(O)C(C)C)n1 (single isomer, unassigned) [Example 5a, 2-methyl-1-(3-methyl-1-(2-methyl-6-(3-(1-methyl-1H-benzo[d]imidazol-2-yl)azetidin-1-yl)pyrimidin-4-yl)-1H-1,2,4-triazol-5-yl)propan-1-ol]
0.77	Cc1nc(N2CC(c3nc4ccccc4n3C)C2)cc(-n2nc(C)nc2C(O)C(C)C)n1 (single isomer, unassigned) [Example 5b, 2-methyl-1-(3-methyl-1-(2-methyl-6-(3-(1-methyl-1H-benzo[d]imidazol-2-yl)azetidin-1-yl)pyrimidin-4-yl)-1H-1,2,4-triazol-5-yl)propan-1-ol]
2.6	Cc1nc(N2CC(c3nc4ccccc4n3C)C2)cc(-n2nc(C)nc2C(O)C2CC2)n1 (single isomer, unassigned) [Example 6b, cyclopropyl(3-methyl-1-(2-methyl-6-(3-(1-methyl-1H-benzo[d]imidazol-2-yl)azetidin-1-yl)pyrimidin-4-yl)-1H-1,2,4-triazol-5-yl)methanol]
4.5	Cc1nc(N2CC(c3nc4ccccc4n3C)C2)cc(-n2nc(C)nc2C(O)CC(F)(F)F)n1 (single isomer, unassigned) [Example 7a, 3,3,3-trifluoro-1-(3-methyl-1-(2-methyl-6-(3-(1-methyl-1H-benzo[d]imidazol-2-yl)azetidin-1-yl)pyrimidin-4-yl)-1H-1,2,4-triazol-5-yl)propan-1-ol]
2.5	Cc1nc(N2CC(c3nc4ccccc4n3C)C2)cc(-n2nc(C)nc2C(O)CC(F)(F)F)n1 (single isomer, unassigned) [Example 7b, 3,3,3-trifluoro-1-(3-methyl-1-(2-methyl-6-(3-(1-methyl-1H-benzo[d]imidazol-2-yl)azetidin-1-yl)pyrimidin-4-yl)-1H-1,2,4-triazol-5-yl)propan-1-ol]
0.53	Cc1nc(C(C)O)n(-c2cc(N3CC(c4nc5ccccc5n4C)C3)nc(C(F)(F)F)n2)n1 (single isomer, unassigned) [Example 8a, 1-(3-methyl-1-(6-(3-(1-methyl-1H-benzo[d]imidazol-2-yl)azetidin-1-yl)-2-(trifluoromethyl)pyrimidin-4-yl)-1H-1,2,4-triazol-5-yl)ethanol]
1	Cc1nc(C(C)O)n(-c2cc(N3CC(c4nc5ccccc5n4C)C3)nc(C(F)(F)F)n2)n1 (single isomer, unassigned) [Example 8b, 1-(3-methyl-1-(6-(3-(1-methyl-1H-benzo[d]imidazol-2-yl)azetidin-1-yl)-2-(trifluoromethyl)pyrimidin-4-yl)-1H-1,2,4-triazol-5-yl)ethanol]
0.13	Cc1nc(C(C)O)n(-c2cc(N3CC(c4nc5ccccc5n4C)C3)nc(C3CC3)n2)n1 (single isomer, unassigned) [Example 10a, 1-(1-(2-cyclopropyl-6-(3-(1-methyl-1H-benzo[d]imidazol-2-yl)azetidin-1-yl)pyrimidin-4-yl)-3-methyl-1H-1,2,4-triazol-5-yl)ethanol]
0.39	Cc1nc(C(C)O)n(-c2cc(N3CC(c4nc5ccccc5n4C)C3)nc(C3CC3)n2)n1 (single isomer, unassigned) [Example 10b, 1-(1-(2-cyclopropyl-6-(3-(1-methyl-1H-benzo[d]imidazol-2-yl)azetidin-1-yl)pyrimidin-4-yl)-3-methyl-1H-1,2,4-triazol-5-yl)ethanol]
0.65	Cc1nc(N2CC(c3nc4ccccc4n3C)C2)cc(-n2nc(C)nc2C(O)C(F)F)n1 (single isomer, unassigned) [Example 11a, 2,2-difluoro-1-(3-methyl-1-(2-methyl-6-(3-(1-methyl-1H-benzo[d]imidazol-2-yl)azetidin-1-yl)pyrimidin-4-yl)-1H-1,2,4-triazol-5-yl)ethanol]
3	Cc1nc(N2CC(c3nc4ccccc4n3C)C2)cc(-n2nc(C)nc2C(O)C(F)F)n1 (single isomer, unassigned) [Example 11b, 2,2-difluoro-1-(3-methyl-1-(2-methyl-6-(3-(1-methyl-1H-benzo[d]imidazol-2-yl)azetidin-1-yl)pyrimidin-4-yl)-1H-1,2,4-triazol-5-yl)ethanol]
0.58	Cc1nc(C2C[C@H]2c2nc3ccccc3n2C)cc(-n2nc(C)nc2C(O)C(F)(F)F)n1 (single isomer, unassigned) [Example 20a]
0.92	Cc1nc(C2C[C@H]2c2nc3ccccc3n2C)cc(-n2nc(C)nc2C(O)C(F)(F)F)n1 (single isomer, unassigned) [Example 20b]
